Measurements as given in US20260116874A1, “HETEROAROMATIC INDOLESULFONAMIDES” (SEED Therapeutics, Inc., priority 2023, published 2026).
pIC50: −log10 of the molar value.

System: HCT116 colorectal cells
Test: Cell viability assay (CellTiter-Glo) in HCT116 cells
Format: cell-based
Settings: Homo sapiens, HCT-116, 72h, CellTiter-Glo, read-out: HCT116 Assay (IC50)
Protocol: HCT116 colorectal cells were used in these experiments. HCT116 cells were obtained from ATCC. The CellTiter-Glo® Luminescent Cell Viability Assay Reagent was obtained from Promega.
Into a 96-well plate, 3000 HCT116 cells were seeded with 100 μL of media (McCoy's 5A Medium supplemented with 10% FBS, 100 units penicillin, and 100 μg streptomycin per mL) 24h before the experiment. For compound treatment, the liquid handling system-Pico machine was used to prepare all the compounds. Each master plate contained serial dilution of 2 compounds, including the control compound E7820. 10 mM compound stock was added to each well of the assay plate to give final concentrations of […], 0.003, 0.002 and 0 μM. Each concentration was tested in triplicate. After 72h, cell viability was determined using CellTiter-Glo Luminescent Cell Viability Assay Reagent following the manufacturer's recommended protocol. Briefly, equilibrate the assay plate and its contents at room temperature for approximately 30 minutes. 100 μL of CellTiter-Glo reagent was added to each well of the assay plate and the contents were mixed for 2 minutes at 500 rpm on an orbital shaker to induce cell lysis (Fisherbrand). The plate was incubated at room temperature for 10 minutes to stabilize luminescent signal. Then the plate was immediately placed in a plate reader (PerkinElmer Multimode Plate Reader Envision2105) and the luminescence signal (0.5 second per well integration time) was determined. IC50 values were calculated using Graphpad Prism 9 software.
Cell viability assays were performed to compare the potency of Compound 1 to Compound 143.

SMILES | pIC50
Cc1ncc(S(=O)(=O)Nc2ccc(Cl)c3c(Cl)c[nH]c23)s1 [Compound 4, N-(3,4-dichloro-1H-indol-7-yl)-2-methyl-thiazole-5-sulfonamide] | 6.00 to 6.30
Cc1ncc(S(=O)(=O)Nc2ccc(C)c3c(C(F)F)c[nH]c23)s1 [Compound 5, N-(3-(difluoromethyl)-4-methyl-1H-indol-7-yl)-2-methylthiazole-5-sulfonamide] | 6.00 to 6.30
Cc1ncc(CS(=O)(=O)Nc2ccc(C)c3c(C#N)c[nH]c23)s1 [Compound 8, N-(3-cyano-4-methyl-1H-indol-7-yl)-1-(2-methylthiazol-5-yl)methanesulfonamide] | < 6.00
Cc1ncc(S(=O)(=O)Nc2cccc3c(Cl)c[nH]c23)s1 [Compound 9, N-(3-chloro-1H-indol-7-yl)-2-methylthiazole-5-sulfonamide] | 6.00 to 6.30
O=S(=O)(Nc1ccc(Cl)c2c(Cl)c[nH]c12)c1cnc(C(F)(F)F)s1 [Compound 11, N-(3,4-dichloro-1H-indol-7-yl)-2-(trifluoromethyl)thiazole-5-sulfonamide] | < 6.00
Cc1ccc(NS(=O)(=O)c2cnc(C3CCN(C)CC3)s2)c2[nH]cc(C#N)c12 [Compound 12, N-(3-cyano-4-methyl-1H-indol-7-yl)-2-(1-methyl-4-piperidyl)thiazole-5-sulfonamide] | < 6.00
O=S(=O)(Nc1cccc2c(Cl)c[nH]c12)c1cnc(C(F)F)s1 [Compound 13, N-(3-chloro-1H-indol-7-yl)-2-(difluoromethyl)thiazole-5-sulfonamide] | 6.00 to 6.30
O=S(=O)(Nc1ccc(Cl)c2cc[nH]c12)c1cnc(C2CCCNC2)s1 (centres unmarked) [Compound 15, N-(4-chloro-1H-indol-7-yl)-2-(piperidin-3-yl)thiazole-5-sulfonamide] | 6.00 to 6.30
CN1CCCC(c2ncc(S(=O)(=O)Nc3ccc(Cl)c4cc[nH]c34)s2)C1 (centres unmarked) [Compound 16, N-(4-chloro-1H-indol-7-yl)-2-(1-methylpiperidin-3-yl)thiazole-5-sulfonamide] | < 6.00
Cc1ccc(NS(=O)(=O)c2cnc(N3CCOCC3)s2)c2[nH]cc(C#N)c12 [Compound 17, N-(3-cyano-4-methyl-1H-indol-7-yl)-2-morpholino-thiazole-5-sulfonamide] | 6.00 to 6.30
Cc1nc(C)c(S(=O)(=O)Nc2ccc(C)c3c(C#N)c[nH]c23)s1 [Compound 21, N-(3-cyano-4-methyl-1H-indol-7-yl)-2,4-dimethylthiazole-5-sulfonamide] | 6.00 to 6.30
Cc1ccc(NS(=O)(=O)c2cnc(CN3CCC(C#N)C3)s2)c2[nH]cc(C#N)c12 (centres unmarked) [Compound 24, N-(3-cyano-4-methyl-1H-indol-7-yl)-2-((3-cyanopyrrolidin-1-yl)methyl)thiazole-5-sulfonamide] | 6.00 to 6.30
Cc1ccc(NS(=O)(=O)c2cnc(C3CCNCC3)s2)c2[nH]cc(C#N)c12 [Compound 26, N-(3-cyano-4-methyl-1H-indol-7-yl)-2-(4-piperidyl)thiazole-5-sulfonamide] | < 6.00
Cc1ccc(NS(=O)(=O)c2cnc(C3CCCNC3)s2)c2[nH]cc(C#N)c12 (centres unmarked) [Compound 27, N-(3-cyano-4-methyl-1H-indol-7-yl)-2-(piperidin-3-yl)thiazole-5-sulfonamide] | < 6.00
Cc1ccc(NS(=O)(=O)c2cnc(C3CCCN(C)C3)s2)c2[nH]cc(C#N)c12 (centres unmarked) [Compound 28, N-(3-cyano-4-methyl-1H-indol-7-yl)-2-(1-methylpiperidin-3-yl)thiazole-5-sulfonamide] | < 6.00
Cc1ncc(S(=O)(=O)N(C)c2ccc(C)c3c(C#N)c[nH]c23)s1 [Compound 30, N-(3-cyano-4-methyl-1H-indol-7-yl)-N,2-dimethyl-thiazole-5-sulfonamide] | < 6.00
Cc1ccc(NS(=O)(=O)c2cnc(C3(N4CCOCC4)CCC3)s2)c2[nH]cc(C#N)c12 [Compound 32, N-(3-cyano-4-methyl-1H-indol-7-yl)-2-(1-morpholinocyclobutyl)thiazole-5-sulfonamide] | 6.00 to 6.30
Cc1ncc(S(=N)(=O)Nc2ccc(C)c3c(C#N)c[nH]c23)s1 (centres unmarked) [Compound 33, 4-methyl-7-[[(2-methylthiazol-5-yl)sulfonimidoyl]amino]-1H-indole-3-carbonitrile] | < 6.00
Cc1ccc(NS(=O)(=O)c2ccn3cc(C#N)nc3c2)c2[nH]cc(C#N)c12 [Compound 40] | 6.00 to 6.30
Cc1ccc(NS(=O)(=O)c2ccc3nccn3c2)c2[nH]cc(C#N)c12 [Compound 41] | 6.00 to 6.30
Cc1ccc(NS(=O)(=O)c2ccc3nc(C#N)cn3c2)c2[nH]cc(C#N)c12 [Compound 42] | < 6.00
Cc1ccc(NS(=O)(=O)c2cnn3c2CCC3)c2[nH]cc(C#N)c12 [Compound 43] | 6.00 to 6.30
Cc1ccc(NS(=O)(=O)c2cc3n(n2)CCC3)c2[nH]cc(C#N)c12 [Compound 44] | 6.00 to 6.30
Cc1ccc(NS(=O)(=O)c2cnc(OCC(=O)N3CCCC3C#N)s2)c2[nH]cc(C#N)c12 (centres unmarked) [Compound 65] | < 6.00
O=S(=O)(Nc1ccc(Cl)c2c(Cl)c[nH]c12)c1cnc(C2(N3CCOCC3)CCC2)s1 [Compound 75] | 6.00 to 6.30
O=S(=O)(Nc1ccc(Cl)c2c(Cl)c[nH]c12)c1cscn1 [Compound 84] | 6.00 to 6.30
Cc1ccc(NS(=O)(=O)c2cscn2)c2[nH]cc(C#N)c12 [Compound 85] | 6.00 to 6.30
[2H]C([2H])([2H])c1ncc(S(=O)(=O)Nc2ccc(C)c3c(Cl)c[nH]c23)s1 [Compound 92] | 6.00 to 6.30

Other lines, results leading:

pIC50 | SMILES
> 6.30 | Cc1ncc(S(=O)(=O)Nc2ccc(Cl)c3c(C#N)c[nH]c23)s1 [Compound 6, N-(4-chloro-3-cyano-1H-indol-7-yl)-2-methyl-thiazole-5-sulfonamide]
> 6.30 | COCCc1ncc(S(=O)(=O)Nc2ccc(C)c3c(C#N)c[nH]c23)s1 [Compound 7, N-(3-cyano-4-methyl-1H-indol-7-yl)-2-(2-methoxyethyl)thiazole-5-sulfonamide]
< 6.00 | Cc1ccc(NS(=O)(=O)c2cnc(C(F)(F)F)s2)c2[nH]cc(C#N)c12 [Compound 10, N-(3-cyano-4-methyl-1H-indol-7-yl)-2-(trifluoromethyl)thiazole-5-sulfonamide]
6.00 to 6.30 | Cc1ccc(NS(=O)(=O)c2cnc(NC(=O)OC(C)(C)C)s2)c2[nH]cc(C#N)c12 [Compound 18, tert-butyl (5-(N-(3-cyano-4-methyl-1H-indol-7-yl)sulfamoyl)thiazol-2-yl)carbamate]
6.00 to 6.30 | Cc1ccc(NS(=O)(=O)c2cnc(N)s2)c2[nH]cc(C#N)c12 [Compound 19, 2-amino-N-(3-cyano-4-methyl-1H-indol-7-yl)thiazole-5-sulfonamide]
6.00 to 6.30 | Cc1ccc(NS(=O)(=O)c2cnc(C(C)N(C)C)s2)c2[nH]cc(C#N)c12 (centres unmarked) [Compound 23, N-(3-cyano-4-methyl-1H-indol-7-yl)-2-(1-(dimethylamino)ethyl)thiazole-5-sulfonamide]
< 6.00 | Cc1ccc(NS(=O)(=O)c2cnc(C3CCN(C(=O)OC(C)(C)C)CC3)s2)c2[nH]cc(C#N)c12 [Compound 25, tert-butyl 4-[5-[(3-cyano-4-methyl-1H-indol-7-yl)sulfamoyl]thiazol-2-yl]piperidine-1-carboxylate]
< 6.00 | CC(=O)N1CCC(c2ncc(S(=O)(=O)Nc3ccc(C)c4c(C#N)c[nH]c34)s2)CC1 [Compound 29, 2-(1-acetyl-4-piperidyl)-N-(3-cyano-4-methyl-1H-indol-7-yl)thiazole-5-sulfonamide]
6.00 to 6.30 | CC(=O)Nc1ncc(S(=O)(=O)Nc2ccc(C)c3c(C#N)c[nH]c23)s1 [Compound 34, N-(5-(N-(3-cyano-4-methyl-1H-indol-7-yl)sulfamoyl)thiazol-2-yl)acetamide]
6.00 to 6.30 | Cc1ccc(NS(=O)(=O)c2cnc(C(C)(C)O)s2)c2[nH]cc(C#N)c12 [Compound 35, N-(3-cyano-4-methyl-1H-indol-7-yl)-2-(1-hydroxy-1-methyl-ethyl)thiazole-5-sulfonamide]
> 6.30 | COc1ncc(S(=O)(=O)Nc2ccc(C)c3c(C#N)c[nH]c23)s1 [Compound 90]
> 6.30 | Cc1ccc(NS(=O)(=O)c2cnc(N(C)S(C)(=O)=O)s2)c2[nH]cc(C#N)c12 [Compound 91]
< 6.00 | C#Cc1c[nH]c2c(NS(=O)(=O)c3cnc(C)s3)ccc(C)c12 [Compound 104]
